Laboratory results: patent publication US20210078958A1, “QUINAZOLINE DERIVATIVE AND USE THEREOF” (MEDSHINE DISCOVERY INC., priority 2017, published 2021)

Legend:
[1] = molecular target: HER4 (ErbB4) (Homo sapiens, UniProt Q15303); assay: in vitro enzyme activity, HER4 (ErbB4); type: biochemical; details: human ErbB4, [γ-33P]ATP, poly(Glu, Tyr) substrate
Procedure: The purpose of this assay is to detect the in vitro inhibitory activity of compounds on HER1 (ErbB1), HER2 (ErbB2), and HER4 (ErbB4). The enzymes used in this assay are human ErbB1, ErbB2 and ErbB4. Eurofins Pharma Discovery Service provided the method for activity detection.
Steps and Method of the Assay (96-Well Plate):
A buffer solution of the test compounds in a dilution of 5-fold (5 μL), polypeptide substrate poly(Glu, Tyr) (4:1) (2.5 μL), ErbB (4-20 ng, 2.5 μL), MnCl2 (50 mM, 1.25 μL), dH2O (3.75 μL), and [γ-^33P]ATP (10 μL) were added, and incubated at 30° C. for 10 minutes. The reaction was terminated by adding 3% phosphoric acid. 10 μL of the sample was taken and transferred to Filtermate A. The filter disc was washed 3 times with 75 mM phosphoric acid and once with methanol. The filter disc was transferred to a sealed plastic bag and the scintillation mixture (4 mL) was added. The intensity of the emitted photon was detected by a scintillation luminescence counter. The CPM (times/min) of the enzyme sample was compared with the CPM of the internal control sample. The level of photon intensity reflected the degree of the tyrosine kinase activity.

[2] = system: OE19 cells; assay: CTG assay of OE19 cells; type: cell-based; details: Homo sapiens, 72 hours of cell culture, Cell Titer Glo
Procedure: OE19 cells with saturation of 80%-90% were digested with trypsin, centrifuged, resuspended and counted. The concentration of cells was adjusted to […]. OE19 cells were added to a 96-well cell culture plate to 8000 OE19 cells per well. The cells were cultured in a cell incubator containing 5% CO2 at 37° C. overnight.
The stock solution of the test compounds was serially 3-fold diluted with DMSO to a total of 10 concentrations. Before the start of the assay, the serially diluted test compounds were further diluted to 10× compound solutions (the compound with a highest concentration contains 1% DMSO) with cell culture medium under sterile conditions. The prepared 10× compound solutions were added to the cell culture plate, and the 10 μL compound solution was added to each well. In this way, the final concentrations of staurosporine as the standard control and all the test compounds were obtained starting from […] as the initial concentration in a 3-fold serial dilution to get 10 test concentrations.
After 72 hours of cell culture, the 96-well cell culture plate was taken out. Cell Titer Glo reagent was added at […], mixed, centrifuged, and incubated at room temperature in the dark for 10 minutes. The cell plate was placed in Envision for reading.
The inhibition rate was calculated according to original data as follows:
Inhibition %=(ZPE−sample detection value)/(ZPE−HPE)×100%
The well containing 10 mM staurosporine on DAY3 (the first day of the assay is the day when compounds were added, and DAY3 is the day when reading is perfomed) was used as the HPE (100% inhibition control) well, and the well containing 0.1% DMSO on DAY3 was used as the ZPE (0% inhibition control) well. Each concentration of test compounds was tested in duplicate.
Non-linear regression analysis was performed using the processed data and GraphPad Prism 6 analysis software to obtain a dose-response curve, and the half-inhibitory concentration (IC50) of the test compounds on OE19 cells was calculated.

[3] = system: subcutaneous xenograft tumor of human gastric cancer NCI-N87 cells; type: in vivo; details: for Tumor volume (mm3) (Day 21) / T/C (%) / TGI (%): 3 mg/kg (D0-7) + 1 mg/kg (D8-21); for Tumor volume (mm3) (Day 21): NCI-N87 xenograft, Mean ± SEM; for T/C (%) / TGI (%): day 21
Procedure: Purpose of the assay: to evaluate the in vivo efficacy of compounds to be tested on subcutaneous xenograft tumor of human gastric cancer NCI-N87 cells in a BALB/c nude mouse model.
Animals of the assay: female BALB/c nude mice, 6-8 weeks old, weighted 18-22 grams; supplier: shanghai sippr bk laboratory animals Ltd.
Human gastric cancer NCI-N87 cells were cultured in monolayer in vitro. The culture conditions were RPMI-1640 medium plus 10% fetal bovine serum, 100 U/mL penicillin, 100 μg/mL streptomycin and 2 mM glutamine, 37° C., 5% CO2. The passaging was performed by the conventional digestion with trypsin-EDTA twice a week. When the cell saturation was 80%-90%, the cells were collected, counted and inoculated.
0.2 mL (10×10^6 cells) of NCI-N87 cells were inoculated subcutaneously on the right back of each nude mouse (PBS+Matrigel, 1:1). When the average tumor volume reached 145 mm^3, administration to each group was started.
The test compounds were formulated into a 0.3 mg/mL clear solution in the solvents of 10% NMP (N-methylpyrrolidone)+10% ethylene glycol stearate+80% water.
The assay index is to investigate whether tumor growth is inhibited, delayed or cured. Tumor diameter was measured twice a week with a vernier caliper. The calculation formula of tumor volume is: V=0.5a×b^2, wherein a and b represent the long and short diameters of tumor, respectively.
The antitumor efficacy of the compounds were evaluated by TGI (%) or relative tumor proliferation rate T/C (%). TGI (%) reflects the tumor growth inhibition rate. TGI (%) is calculated as follows: TGI (%)=[1−(average tumor volume at the end of administration for a certain treatment group−average tumor volume at the beginning of administration for this treatment group)/(average tumor volume at the end of treatment for a solvent control group−average tumor volume at the beginning of administration for this solvent control group)][…].
Relative tumor proliferation rate T/C (%): the calculation formula is as follows: T/C %=TRTV/CRTV (TRTV: RTV for the treatment group; CRTV: RTV for the negative control group). Relative tumor volume (RTV) is calculated based on tumor measurement results. The calculation formula is RTV=Vt/V0, wherein V0 is the average tumor volume measured at the beginning of administration (i.e., d0) to each group, Vt is the average tumor volume at a certain measurement, and the data for TRTV and CRTV were taken on the same day.
The tumor weight was measured after the assay is over and the T/C weight percentage was calculated. T weight and C weight represent the tumor weight of the administration group and the vehicle control group, respectively.
Statistical analysis included the mean and standard error (SEM) of tumor volume at each time point in each group. […] The comparison between two groups was analyzed by T-test, and the comparison among three or more groups was analyzed by one-way ANOVA. […] All data analysis was carried out with SPSS 17.0. p<0.05 was considered a significant difference.

[4] = molecular target: T1, CYP3A4 (Homo sapiens, UniProt P08684); assay: inhibition of CYP enzyme activity in human liver microsome, CYP3A4; type: in vitro ADME
T1 construct: in the assay of CYP enzyme activity in human liver microsome; from tissue; host or cells: human liver microsome
Excerpt: The results of the compounds disclosed herein and the reference compound Poziotinib in the assay of CYP enzyme activity in human liver microsome were shown in the following table (Table 8).

T1 sequence (P08684 whole entry): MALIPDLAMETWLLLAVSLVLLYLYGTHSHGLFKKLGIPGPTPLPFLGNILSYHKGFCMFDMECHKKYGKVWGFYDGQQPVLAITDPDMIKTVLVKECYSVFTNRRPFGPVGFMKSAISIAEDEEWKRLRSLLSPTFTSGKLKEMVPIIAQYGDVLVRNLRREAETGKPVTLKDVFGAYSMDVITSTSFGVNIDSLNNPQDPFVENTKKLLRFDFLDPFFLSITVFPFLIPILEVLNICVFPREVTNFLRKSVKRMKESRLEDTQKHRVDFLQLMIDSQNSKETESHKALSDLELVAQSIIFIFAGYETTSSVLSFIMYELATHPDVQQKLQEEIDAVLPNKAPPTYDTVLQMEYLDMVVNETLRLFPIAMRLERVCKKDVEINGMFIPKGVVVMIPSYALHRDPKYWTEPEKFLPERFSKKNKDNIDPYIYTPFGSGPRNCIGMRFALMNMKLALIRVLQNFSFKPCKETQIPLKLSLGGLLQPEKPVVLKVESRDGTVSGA
HER4 (ErbB4), sequence (Q15303 26-1308): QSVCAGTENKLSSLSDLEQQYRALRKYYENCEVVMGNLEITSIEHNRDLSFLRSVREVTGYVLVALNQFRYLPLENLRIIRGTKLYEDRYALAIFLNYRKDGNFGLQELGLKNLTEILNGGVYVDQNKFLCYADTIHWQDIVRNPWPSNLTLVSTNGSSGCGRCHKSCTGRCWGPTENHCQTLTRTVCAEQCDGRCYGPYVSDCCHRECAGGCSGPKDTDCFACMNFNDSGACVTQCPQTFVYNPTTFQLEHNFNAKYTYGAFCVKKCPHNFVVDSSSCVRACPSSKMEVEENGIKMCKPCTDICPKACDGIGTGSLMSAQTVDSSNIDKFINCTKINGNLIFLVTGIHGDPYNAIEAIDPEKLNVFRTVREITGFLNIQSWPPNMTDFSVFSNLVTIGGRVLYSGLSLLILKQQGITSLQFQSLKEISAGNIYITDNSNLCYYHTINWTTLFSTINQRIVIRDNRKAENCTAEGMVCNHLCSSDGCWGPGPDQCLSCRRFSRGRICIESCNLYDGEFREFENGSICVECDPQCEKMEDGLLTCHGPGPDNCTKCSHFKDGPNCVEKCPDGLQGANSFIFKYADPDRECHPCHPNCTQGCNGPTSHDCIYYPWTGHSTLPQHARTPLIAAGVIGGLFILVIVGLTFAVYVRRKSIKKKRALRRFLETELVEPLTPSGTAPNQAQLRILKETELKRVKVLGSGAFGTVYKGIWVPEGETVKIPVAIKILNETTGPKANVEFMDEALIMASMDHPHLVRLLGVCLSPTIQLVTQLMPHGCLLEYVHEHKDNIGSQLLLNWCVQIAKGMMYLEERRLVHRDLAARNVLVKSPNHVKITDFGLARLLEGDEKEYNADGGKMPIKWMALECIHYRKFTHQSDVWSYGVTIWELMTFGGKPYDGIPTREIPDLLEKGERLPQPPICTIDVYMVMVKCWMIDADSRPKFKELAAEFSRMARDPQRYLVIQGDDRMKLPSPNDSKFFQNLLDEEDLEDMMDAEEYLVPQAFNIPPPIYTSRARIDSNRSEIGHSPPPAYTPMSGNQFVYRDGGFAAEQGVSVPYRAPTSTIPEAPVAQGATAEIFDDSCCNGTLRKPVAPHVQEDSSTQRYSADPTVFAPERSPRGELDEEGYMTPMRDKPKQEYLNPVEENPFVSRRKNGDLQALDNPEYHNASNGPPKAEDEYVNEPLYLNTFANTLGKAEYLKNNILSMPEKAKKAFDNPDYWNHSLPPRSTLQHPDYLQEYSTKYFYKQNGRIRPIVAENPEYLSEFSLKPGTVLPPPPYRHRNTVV

| Structure (SMILES) | IC50 [1] [nM] | IC50 [2] [nM] | Tumor volume (mm3) (Day 21) [3] | T/C (%) [3] [%] | TGI (%) [3] [%] | body weight of test animals (reference index for drug toxicity) ([3]; mouse, in vivo) | IC50 [4] [nM] | inhibition of CYP enzyme CYP3A4 [4] |
| --- | --- | --- | --- | --- | --- | --- | --- | --- |
| C=CC(=O)N1[C@@H]2CC[C@H]1C[C@H](Oc1cc3c(Nc4ccc(Cl)c(Cl)c4F)ncnc3cc1OC)C2 [Example 8] | 3.5 | 0.48 | 30 ± 7 | 4.19 | 119.71 | significantly better than that of the control compound Poziotinib | – | – |
| C=CC(=O)N1[C@@H]2CC[C@H]1C[C@H](Nc1cc3c(Nc4ccc(Cl)c(Cl)c4F)ncnc3cc1OC)C2 [Example 38] | 3 | 1.2 | – | – | – | – | > 50000 | no inhibitory activity |
| C=CC(=O)N1CCC(Oc2cc3c(Nc4ccc(Cl)c(Cl)c4F)ncnc3cc2OC)CC1 [Poziotinib, reference compound] | – | – | 54 ± 12 | 7.55 | 115.6 | – | > 50000 | no inhibitory activity |
